Measurements published in patent US12319640B2, “Cyclic diones as herbicidal compounds” (SYNGENTA CROP PROTECTION AG, priority 2019, dated 2025).

What was measured:
Assay in all cases: Glasshouse herbicide test, pre- and post-emergence
Assay type in all cases: in vivo
[1] = test system: Alopecurus myosuroides (ALOMY); details: 250 g/h, evaluated after 13 days, five-point scale; for percentage damage caused to the plant, ALOMY POST: post-emergence; for percentage damage caused to the plant, ALOMY PRE: pre-emergence
Experimental: (§1) Seeds of a variety of test species are sown in standard soil in pots (Lolium perenne (LOLPE), Setaria faberi (SETFA), Alopecurus myosuroides (ALOMY), Echinochloa crus-galli (ECHCG), Avena fatua (AVEFA)). After cultivation for one day (pre-emergence) or after 8 days cultivation (post-emergence) under controlled conditions in a glasshouse (at 24/16° C., day/night; 14 hours light; 65% humidity), the plants are sprayed with an aqueous spray solution derived from the formulation of the technical active ingredient in acetone/water (50:50) solution containing 0.5% Tween 20 (polyoxyethelyene sorbitan monolaurate, CAS RN 9005-64-5). Compounds are applied at 250 g/h. The test plants are then grown in a glasshouse under controlled conditions in a glasshouse (at 24/16° C., day/night; 14 hours light; 65% humidity) and watered twice daily. After 13 days for pre and post-emergence, the test is evaluated for the percentage damage caused to the plant. The biological activities are shown in the following table on a five-point scale (5=80-100%; 4=60-79%; 3=40-59%; 2=20-39%; 1=0-19%).

Setaria faberi (SETFA) = details: 250 g/h, evaluated after 13 days, five-point scale; for percentage damage caused to the plant, SETFA POST: post-emergence; for percentage damage caused to the plant, SETFA PRE: pre-emergence
Experimental: as §1

Lolium perenne (LOLPE) = details: 250 g/h, evaluated after 13 days, five-point scale; for percentage damage caused to the plant, LOLPE POST: post-emergence; for percentage damage caused to the plant, LOLPE PRE: pre-emergence
Experimental: as §1

[2] = test system: Echinochloa crus-galli (ECHCG); details: 250 g/h, evaluated after 13 days, five-point scale; for percentage damage caused to the plant, ECHCG POST: post-emergence; for percentage damage caused to the plant, ECHCG PRE: pre-emergence
Experimental: as §1

Avena fatua (AVEFA) = details: 250 g/h, evaluated after 13 days, five-point scale; for percentage damage caused to the plant, AVEFA POST: post-emergence; for percentage damage caused to the plant, AVEFA PRE: pre-emergence
Experimental: as §1

Row | Structure (SMILES) | percentage damage caused to the plant, ALOMY POST [1] | percentage damage caused to the plant, ALOMY PRE [1] | percentage damage caused to the plant, SETFA POST (Setaria faberi (SETFA)) | percentage damage caused to the plant, SETFA PRE (Setaria faberi (SETFA)) | percentage damage caused to the plant, LOLPE POST (Lolium perenne (LOLPE)) | percentage damage caused to the plant, LOLPE PRE (Lolium perenne (LOLPE)) | percentage damage caused to the plant, ECHCG POST [2] | percentage damage caused to the plant, ECHCG PRE [2] | percentage damage caused to the plant, AVEFA POST (Avena fatua (AVEFA)) | percentage damage caused to the plant, AVEFA PRE (Avena fatua (AVEFA))
1 | CC#Cc1cc(C)c(C2C(=O)CC3(CCC(NC(=O)[C@H](C)O)CC3)CC2=O)c(C)c1 (some centres unmarked) [Compound 2.017] | 5 (5=80-100%) | 4 (4=60-79%) | 5 (5=80-100%) | 5 (5=80-100%) | 5 (5=80-100%) | 4 (4=60-79%) | 5 (5=80-100%) | 5 (5=80-100%) | 5 (5=80-100%) | 4 (4=60-79%)
2 | CC#Cc1cc(C)c(C2C(=O)CC3(CCC(NC(=O)c4ccccc4)CC3)CC2=O)c(C)c1 (centres unmarked) [Compound 2.019] | 5 (5=80-100%) | 5 (5=80-100%) | 5 (5=80-100%) | 5 (5=80-100%) | 5 (5=80-100%) | 5 (5=80-100%) | 5 (5=80-100%) | 5 (5=80-100%) | 5 (5=80-100%) | 5 (5=80-100%)
3 | CC#Cc1cc(C)c(C2C(=O)CC3(CC2=O)CC(C(=O)NC)C3)c(C)c1 (centres unmarked) [Compound 1.017] | 5 (5=80-100%) | 5 (5=80-100%) | 5 (5=80-100%) | 5 (5=80-100%) | 5 (5=80-100%) | 5 (5=80-100%) | 5 (5=80-100%) | 5 (5=80-100%) | 5 (5=80-100%) | 5 (5=80-100%)
4 | Cc1cc(-c2ccc(C#N)cn2)cc(C)c1C1C(=O)CC2(CCC(C(=O)N(C)C)CC2)CC1=O (centres unmarked) [Compound 1.021] | 5 (5=80-100%) | 4 (4=60-79%) | 5 (5=80-100%) | 4 (4=60-79%) | 5 (5=80-100%) | 4 (4=60-79%) | 5 (5=80-100%) | 5 (5=80-100%) | 5 (5=80-100%) | 2 (2=20-39%)
5 | CNC(=O)C1CCC2(CC1)CC(=O)C(c1c(C)cc(-c3ccc(C#N)cn3)cc1C)C(=O)C2 (centres unmarked) [Compound 1.020] | 5 (5=80-100%) | 5 (5=80-100%) | 5 (5=80-100%) | 5 (5=80-100%) | 5 (5=80-100%) | 5 (5=80-100%) | 5 (5=80-100%) | 5 (5=80-100%) | 5 (5=80-100%) | 5 (5=80-100%)
6 | CC#Cc1cc(C)c(C2C(=O)CC3(CCC(NC(=O)NC(=O)c4ccccn4)CC3)CC2=O)c(C)c1 (centres unmarked) [Compound 2.023] | 5 (5=80-100%) | 5 (5=80-100%) | 5 (5=80-100%) | 5 (5=80-100%) | 5 (5=80-100%) | 5 (5=80-100%) | 5 (5=80-100%) | 5 (5=80-100%) | 5 (5=80-100%) | 4 (4=60-79%)
7 | CC#Cc1cc(C)c(C2C(=O)CC3(CCC(C(=O)N(C)CCO)CC3)CC2=O)c(C)c1 (centres unmarked) [Compound 1.009] | 5 (5=80-100%) | 4 (4=60-79%) | 5 (5=80-100%) | 3 (3=40-59%) | 5 (5=80-100%) | 5 (5=80-100%) | 5 (5=80-100%) | 4 (4=60-79%) | 5 (5=80-100%) | 3 (3=40-59%)
8 | CC#Cc1cc(C)c(C2C(=O)CC3(CCC(NC(=O)c4nccnc4C)CC3)CC2=O)c(C)c1 (centres unmarked) [Compound 2.015] | 5 (5=80-100%) | 4 (4=60-79%) | 5 (5=80-100%) | 5 (5=80-100%) | 5 (5=80-100%) | 5 (5=80-100%) | 5 (5=80-100%) | 5 (5=80-100%) | 5 (5=80-100%) | 5 (5=80-100%)
9 | CC#Cc1cc(C)c(C2C(=O)CC3(CCC(NC(=O)c4ccc(OC)nn4)CC3)CC2=O)c(C)c1 (centres unmarked) [Compound 2.014] | 5 (5=80-100%) | 5 (5=80-100%) | 5 (5=80-100%) | 5 (5=80-100%) | 5 (5=80-100%) | 5 (5=80-100%) | 5 (5=80-100%) | 5 (5=80-100%) | 5 (5=80-100%) | 5 (5=80-100%)
10 | CC#Cc1cc(C)c(C2C(=O)CC3(CCC(C(=O)N4CCOCC4=O)CC3)CC2=O)c(C)c1 (centres unmarked) [Compound 1.005] | 4 (4=60-79%) | 3 (3=40-59%) | 5 (5=80-100%) | 5 (5=80-100%) | 5 (5=80-100%) | 5 (5=80-100%) | 5 (5=80-100%) | 5 (5=80-100%) | 5 (5=80-100%) | 4 (4=60-79%)
11 | CC(=O)NC1CCC2(CC1)CC(=O)C(c1c(C)cc(-c3ccc(C#N)cn3)cc1C)C(=O)C2 (centres unmarked) [Compound 2.030] | 5 (5=80-100%) | 4 (4=60-79%) | 5 (5=80-100%) | 5 (5=80-100%) | 5 (5=80-100%) | 5 (5=80-100%) | 5 (5=80-100%) | 5 (5=80-100%) | 5 (5=80-100%) | 5 (5=80-100%)
